Patent publication US20090068243A1, “Novel formulations for delivery of antiviral peptide therapeutics” (priority 2007, published 2009)

Assays:
[1] = Intravenous pharmacokinetics in cynomolgus monkeys; assay type: in vivo, cynomolgus monkeys (Macaca fasicularis); conditions: for biological half-life relative to base sequence, in words: comment on Table 2; for clearance / half-life: cynomolgus monkey, plasma, iv, dosed intravenously; for half-life: read-out: Half-life (t ½; hr) (converted)
Procedure: For determining pharmacokinetic properties, an HIV fusion inhibitor peptide or a base sequence from which an HIV fusion inhibitor peptide is derived was dosed intravenously in cynomolgus monkeys (Macaca fasicularis) (other animal models may be used for determining pharmacokinetic properties, as known in the art). At various times post-dose, blood samples were drawn and plasma isolated by centrifugation. Plasma samples were stored frozen until analysis by LC-MS (liquid chromatography/mass spectrometry) in the electrospray, positive-ion mode. An HIV fusion inhibitor or base sequence was eluted from a C18 or C8 HPLC column with a gradient of acetonitrile in a buffer of 10 mM ammonium acetate, pH 6.8. At the time of analysis, plasma samples were deproteinated with either two or three volumes of acetonitrile containing 0.5% formic acid. Duplicate calibration standards in cynomolgus plasma samples were prepared at the same time as the samples and analyzed before and after the samples containing either HIV fusion inhibitor peptide or base sequence. Pharmacokinetic properties were calculated from the plasma concentration-time data using either mono-exponential or bi-exponential mathematical models. Models were derived by non-linear least squares optimization. A 1/C^2 weighting of concentrations was used. The following equations were used to calculate area-under the plasma concentration vs. time curve (AUC), total body clearance (Cl), and terminal elimination half-life (t ½).
Where A and B are intercepts and a and b are the rate constants of the exponential equations describing the distribution and elimination phases, respectively. When mono-exponential models were used, the “A” and “a” properties were eliminated.
Cl=Dose/AUC (expressed in L/K/hr)
t½=0.6903/b (expressed in hr)

[2] = tested on: HIV-IIIB; conditions: 50% reduction in infectious virus titer
Description: Assessment of biological properties included measurement of antiviral activity against HIV-1 strains. […] These assays score for reduction of infectious virus titer employing the indicator cell lines MAGI or the CCR5 expressing derivative cMAGI. Both cell lines exploit the ability of HIV-1 tat to transactivate the expression of a β-galactosidase reporter gene driven by the HIV-LTR. The β-gal reporter has been modified to localize in the nucleus and can be detected with the X-gal substrate as intense nuclear staining within a few days of infection. The number of stained nuclei can thus be interpreted as equal to the number of infectious virions in the challenge inoculum if there is only one round of infection prior to staining. […] In the MAGI and cMAGI assays, a 50% reduction in infectious titer (Vn/Vo=0.5) is significant, and provides the primary cutoff value for assessing antiviral activity (“IC50” is defined as the concentration of active ingredient resulting in a 50% reduction in infectious virus titer). […] The number of infected cells for each control and peptide dilution was determined with the CCD-imager, and then the IC50 was calculated (expressed in μg/ml).

[3] = Helicity by circular dichroism (CD); assay type: physicochemical; conditions: usually percent helicity at 10 μM, 25° C.
Procedure: (§1) Assessment of biophysical parameters included measurement of helicity and thermal stability. Helicity was assessed by circular dichroism (“CD”) as follows. Briefly, CD spectra were obtained using a spectrometer equipped with a thermoelectric temperature controller. The spectra was obtained at 25° C. with 0.5 nanometer (nm) steps from 200 to 260 nm, with a 1.5 nm bandwith, and a typical averaging time of 4 seconds/step. After the cell/buffer blank was subtracted, spectra were smoothed using a third-order least-squares polynomial fit with a conservative window size to give random residuals. Raw ellipticity values were converted to mean residue ellipticity using standard methods, and plotted was the wavelength (from 200 to 260 nm) versus [θ]×10−3 (degrees cm^2/dmol). Percent helicity values were then calculated using standard methods (usually expressed as percent helicity at 10 μM, 25° C.). Assessment of thermal stability was performed by monitoring the change in CD signal at 222 nm as temperature was raised in 2° C. steps, with 1 minute equilibration times. The stability for each sample (e.g., HIV fusion inhibitor peptide), as represented by the Tm value, is the temperature corresponding to the maximum value of the first derivative of the thermal transition.

[4] = tested on: HIV-Res; assay type: cell-based, HIV-1; conditions: resistant viral isolate "Res"
Description: Assessment of biological properties included measurement of antiviral activity against HIV-1 strains. In determining antiviral activity (e.g., one measure being the ability to inhibit transmission of HIV to a target cell) of the HIV fusion inhibitor peptides, an in vitro assay which has been shown, by data generated using peptides derived from the HR regions of HIV gp41, to be predictive of antiviral activity observed in vivo was used. […] These assays score for reduction of infectious virus titer employing the indicator cell lines MAGI or the CCR5 expressing derivative cMAGI. Both cell lines exploit the ability of HIV-1 tat to transactivate the expression of a β-galactosidase reporter gene driven by the HIV-LTR. The β-gal reporter has been modified to localize in the nucleus and can be detected with the X-gal substrate as intense nuclear staining within a few days of infection. […] The number of infected cells for each control and peptide dilution was determined with the CCD-imager, and then the IC50 was calculated (expressed in μg/ml).
Viruses resistant to the antiviral activity of a peptide consisting of a base sequence can be produced using standard laboratory methods. […] The cultures are maintained and monitored until syncytia are present. […] The second round of culture is maintained and monitored for presence of virus resistant to the antiviral activity of the peptide. […]

[5] = Thermal stability (Tm) by CD signal at 222 nm; assay type: physicochemical; conditions: CD at 222 nm, maximum of first derivative of thermal transition
Procedure: as §1

[6] = Stability in aqueous solution (PBS), peptide remaining in solution by HPLC; assay type: physicochemical; conditions: 10 mg/ml in PBS, about pH 7.3 to 7.5, 37° C.
[7] = tested on: 584.000060
Description: (§2) Assessment of biological properties included measurement of antiviral activity against HIV-1 strains. […] These assays score for reduction of infectious virus titer employing the indicator cell lines MAGI or the CCR5 expressing derivative cMAGI. Both cell lines exploit the ability of HIV-1 tat to transactivate the expression of a β-galactosidase reporter gene driven by the HIV-LTR. The β-gal reporter has been modified to localize in the nucleus and can be detected with the X-gal substrate as intense nuclear staining within a few days of infection. The number of stained nuclei can thus be interpreted as equal to the number of infectious virions in the challenge inoculum if there is only one round of infection prior to staining. […] In the MAGI and cMAGI assays, a 50% reduction in infectious titer (Vn/Vo=0.5) is significant, and provides the primary cutoff value for assessing antiviral activity (“IC50” is defined as the concentration of active ingredient resulting in a 50% reduction in infectious virus titer). […] The peptide (in the respective dilution) was added to the cMAGI or MAGI cells, followed by the virus inocula; and 24 hours later, an inhibitor of infection and cell-cell fusion (e.g., SEQ ID NO:2 (enfuvirtide)) was added to prevent secondary rounds of HIV infection and cell-cell virus spread. The cells were cultured for 2 more days, and then fixed and stained with the X-gal substrate to detect HIV-infected cells. The number of infected cells for each control and peptide dilution was determined with the CCD-imager, and then the IC50 was calculated (expressed in μg/ml).
(§3) In particular, in vitro resistance comparison studies were performed between the novel SEQ ID NO:9 compound of interest and established antiviral agent SEQ ID NO:2, described in detail as follows: MT2 cells were infected with virus isolates (IIIB, 030, 060 and 098) and cultured in increasing concentrations of SEQ ID NO:2 (enfuvirtide) or SEQ ID NO:9 to select for resistance. The initial peptide concentration was approximately 2 times the IC50 of each peptide against the corresponding wild type isolate. Peptide concentrations were maintained by adding fresh peptide every 1-3 days. Cultures were monitored for cytopathic effect (CPE) using standard techniques and when maximal CPE was achieved, a small aliquot of virus was used for subsequent rounds of infection. Peptide concentrations were increased 2 to 4-fold depending on the length of time in culture when compared to the growth rate of wild type virus. During the course of selection, peptide-free virus stocks were also collected. Peptide-free virus stocks were characterized for gp41 genotypic changes by dideoxy sequencing chemistries and phenotypic susceptibility was determined using a cMAGI infectivity assay.

[8] = tested on: 584.000098
Description: as §2, §3

[9] = tested on: 584.000030
Description: as §2, §3

[10] = tested on: IIIB; conditions: starting virus isolate IIIB
Description: as §2, §3

[11] = tested on: virus isolates (IIIB, 030, 060 and 098); conditions: Geometric Mean of four isolates
Description: as §2, §3

Q: With “Ac-TTWEAWDRAIAEYAARIEALIRAAQEQQEKLEAALREL-NH2 (N-terminus and C-terminus assumed) [SEQ ID NO:7]” as the molecule, how does the “biological half-life relative to base sequence, in words” value [1] read?
A: increased biological half-life

Q: What about the clearance [1] of the same molecule?
A: < 0.333 mL/min/kg

Q: And the half-life [1]?
A: 17 h

Q: Which “Antiviral Activity (μg/ml) HIV-IIIB IC50” value [2] does the source give for “Ac-TTWEAWDRAIAEYAARIEALLRAAQEQQEKLEAALREL-NH2 [SEQ ID NO:10, TTWEAWDRAIAEYAARIEALLRAAQEQQEKLEAALREL]” here?
A: <0.10 µg/mL

Q: What about the “biological half-life relative to base sequence, in words” value [1] of the same molecule?
A: increased biological half-life

Q: What about the clearance [1] of the same molecule?
A: < 0.333 mL/min/kg

Q: And the half-life [1]?
A: 21 h

Q: And the “Helicity (%)” value [3]?
A: 77%

Q: And the “Antiviral Activity (μg/ml) HIV-Res IC50” value [4]?
A: <0.10 µg/mL

Q: What about the “Tm (° C.)” value [5] of the same molecule?
A: 75 °C

Q: What does the source list for “Ac-TTWEAWDRAIAEYAARIEALIRALQEQQEKNEAALREL-NH2 (N-terminus and C-terminus assumed) [SEQ ID NO:6]”?
A: biological half-life relative to base sequence, in words [1]: increased biological half-life; clearance [1]: < 0.333 mL/min/kg; half-life [1]: 15 h

Q: What does the source list for `CC[C@H](C)[C@H](NC(=O)[C@H](C)NC(=O)[C@H](CCCNC(=N)N)NC(=O)[C@H](CC(=O)O)NC(=O)[C@H](Cc1c[nH]c2ccccc12)NC(=O)[C@H](C)NC(=O)[C@H](CCC(=O)O)NC(=O)[C@H](Cc1c[nH]c2ccccc12)NC(=O)[C@@H](NC(=O)[C@@H](NC(C)=O)[C@@H](C)O)[C@@H](C)O)C(=O)N[C@@H](C)C(=O)N[C@@H](CCC(=O)O)C(=O)N[C@@H](Cc1ccc(O)cc1)C(=O)N[C@@H](C)C(=O)N[C@@H](C)C(=O)N[C@@H](CCCNC(=N)N)C(=O)N[C@H](C(=O)N[C@@H](CCC(=O)O)C(=O)N[C@@H](C)C(=O)N[C@@H](CC(C)C)C(=O)N[C@H](C(=O)N[C@@H](CCCNC(=N)N)C(=O)N[C@@H](C)C(=O)N[C@@H](C)C(=O)N[C@@H](CCC(N)=O)C(=O)N[C@@H](CCC(=O)O)C(=O)N[C@@H](CCC(N)=O)C(=O)N[C@@H](CCC(N)=O)C(=O)N[C@@H](CCC(=O)O)C(=O)N[C@@H](CCCCN)C(=O)N[C@@H](CC(N)=O)C(=O)N[C@@H](CCC(=O)O)C(=O)N[C@@H](C)C(=O)N[C@@H](C)C(=O)N[C@@H](CC(C)C)C(=O)N[C@@H](CCCNC(=N)N)C(=O)N[C@@H](CCC(=O)O)C(=O)N[C@@H](CC(C)C)C(N)=O)[C@@H](C)CC)[C@@H](C)CC` [SEQ ID NO:5]?
A: clearance [1]: > 0.667 mL/min/kg; half-life [1]: 6 h; peptide remaining detectable in solution ([6]; time point of 1 week): less than 80%

Q: What does the source list for enfuvirtide?
A: Fold Change in IC50 ([7]; starting virus isolate 584.000060): 7; Ending IC50 ([7]; starting virus isolate 584.000060, after selection): 0.068 µg/mL; Starting IC50 ([7]; starting virus isolate 584.000060, before selection): 0.01 µg/mL; Fold Change in IC50 ([8]; starting virus isolate 584.000098): 912; Ending IC50 ([8]; starting virus isolate 584.000098, after selection): 45.575 µg/mL; Starting IC50 ([8]; starting virus isolate 584.000098, before selection): 0.05 µg/mL; Fold Change in IC50 ([9]; starting virus isolate 584.000030): 19; Ending IC50 ([9]; starting virus isolate 584.000030, after selection): 0.798 µg/mL; Starting IC50 ([9]; starting virus isolate 584.000030, before selection): 0.042 µg/mL; Fold Change in IC50 [10]: 27; Ending IC50 ([10]; after selection): 0.163 µg/mL; Starting IC50 ([10]; before selection): 0.006 µg/mL; Fold Change in IC50 [11]: 42; Ending IC50 ([11]; after selection): 0.797 µg/mL; Starting IC50 ([11]; before selection): 0.019 µg/mL; stability of solution, in words [6]: becomes unstable after just several hours

Q: With “Ac-TTWEAWDRAIAEYAARIEALLRAAQEQQEKNEAALREL-NH2 (N-terminus and C-terminus assumed) [SEQ ID NO:8]” as the molecule, how does the “biological half-life relative to base sequence, in words” value [1] read?
A: does not exhibit the dramatic increase in half-life

Q: What about the clearance [1] of the same molecule?
A: > 0.667 mL/min/kg

Q: And the half-life [1]?
A: 7 h
